Experiments:
[1] = target: T1, MRK (Homo sapiens, UniProt Q9NYL2); parameters: endogenous in cells; host or cells: UW228 medulloblastoma cells; settings: reference (6); cited from earlier work
[2] = tested on: MRK; assay: Irreversible inhibition of MRK activity after washout (P-MRK western blot); type: cell-based; settings: cells expressing activatable MRK construct, pretreated 6 hours, washed, then homodimerizing drug
Experimental: FIG. 5. M443 inhibits MRK activity in an irreversible fashion. Cells expressing an activatable MRK construct were pretreated with the indicated inhibitors for 6 hours, then they were washed with PBS 3 times, incubated for 15 minutes, washed once more and after 15 minutes they were treated with the homodimerizing drug to activate MRK. Cell lysates were western blotted with the P-MRK antibody to detect active MRK (top blot). Histograms are data from quantified P-MRK bands from three independent experiments.

[3] = tested on: UW228 medulloblastoma cells; assay: Colony formation assay with radiation; type: cell-based; settings: 6 hours M443 before radiation, colonies counted after 7 days
Experimental: FIG. 6. M443 sensitizes UW228 medulloblastoma cells to radiation. UW228 cells were seeded for the colony formation assay at 500 cells/dish. The following day, they were treated for 6 hours with the indicated doses of M443 and then exposed to different doses of radiation. After incubation at 37° C. for 7 days, colonies larger than 50 cells were counted.

[4] = tested on: Chk2; assay: IR-induced signaling downstream of MRK, phospho-Chk2 western blot; type: cell-based; settings: UW228 cells, 500 nM M443 6 hours, 1 hour after IR
Experimental: (§1) FIG. 7. Inhibition of IR-induced signaling downstream of MRK by M443. UW228 medulloblastoma cells were treated with 500 nM of M443 or with vehicle for 6 hours, and then exposed to IR or not. One hour after IR treatment, cells were harvested and cell lysates were tested by western blot for the activities of MRK, p38 and Chk2 proteins using the respective phospho-specific antibodies.
(§2) By inhibiting MRK activity, M443 was expected to reduce signal transduction downstream of MRK. […] Thus, M443 inhibits MRK activation by IR and its downstream signaling events, which leads to loss of cell viability after exposure to IR.

[5] = tested on: p38; assay: IR-induced signaling downstream of MRK, phospho-p38 western blot; type: cell-based; settings: UW228 cells, 500 nM M443 6 hours, 1 hour after IR
Experimental: as §1, §2

[6] = tested on: 4T1 breast cancer cells; assay: MTT cell viability after X-ray irradiation; type: cell-based; settings: 4T1 cells, M443 6 hours before irradiation, MTT 72 hours after
Experimental: FIG. 8. […] 4T1 breast cancer cells were plated in 96-well plates (750 cells per well/8 wells per condition) and treated with M443 at the indicated concentrations 6 hours before irradiating at the indicated dosages. 72 hours after irradiation MTT solution (1.25 μg/μl) was added to all wells and incubated for an additional 3 hours before cell viability/mitochondrial activity was analyzed. Shown are the means+/−SD of 8 replicate wells.

[7] = tested on: IMB226 medulloblastoma cells; assay: Animal model of medulloblastoma, orthotopic implantation, survival; type: in vivo, nude mice
Experimental: FIG. 9. Kaplan-Meier survival curve. Three weeks after implantation of IMB226 medulloblastoma cells in nude mice, animals were randomized into 4 groups of 12 mice for each treatment. M443 or the vehicle were delivered directly into the tumor via an ALZET pump.
The effect of M443 was tested in an animal model of medulloblastoma that employs orthotopic implantation of IMB226 medulloblastoma cells in nude mice. M443 was administered directly into the tumor using an osmotic pump that is connected to a catheter implanted into the brain in order to bypass the blood-brain barrier.

[8] = tested on: MRK; assay: Inhibition of MRK in vivo, brain lysates western blot; parameters: species or system nude mice; settings: 18 hours after pump implantation
Experimental: FIG. 10. Inhibition of MRK in vivo. Brains from control and M443-treated animals were harvested 18 hours after pump implantation. Each cerebellum was dissected from the rest of the brain and divided into left (L) and right (R), top (T) and bottom (B) portions. Brain lysates were tested for MRK activity by western blotting. Human HLA (hu-HLA) was used to identify the brain portions containing tumor cells of human origin. Tubulin was used as loading control.
To confirm that M443 administered into the brain inhibited MRK, brain extracts were obtained 18 hours after pump implantation, and MRK activity determined. […] The hu-HLA signal indicates the presence of tumor in the treated sample (lane 5).

[9] = tested on: c-Abl; assay: c-Abl activity in brain lysates, phospho-Abl western blot; type: in vivo, nude mice; settings: treated versus untreated tumor
Experimental: M443 is a derivative of nilotinib, an inhibitor of the BCR-Abl oncogene. To examine the specificity of M443, the activity of c-Abl was also determined, by blotting the brain lysates with a phospho-Abl-(P-c-Abl) specific antibody. […] As Abl is known to respond to stress, the increase in P-c-Abl may be caused by M443-induced cell stress.

[10] = target: T2, BCR-Abl (Homo sapiens, UniProt P00519); assay: BCR-Abl activity in K562 cells, western blot; type: cell-based; settings: 1 μM, 6 hours
T2 construct: BCR (N-terminal fusion partner, P11274); endogenous in cells; host or cells: K562; the other entry of the earlier key: BCR (P11274, Breakpoint cluster region protein)
Experimental: (§3) FIG. 11. M443 inhibits MRK activity, but not BCR-Abl. K562 cells were treated with DMSO, 1 μM Nilotinib or 1 μM M443 for 6 hours and then they were processed for western blot with the indicated antibodies.

[11] = target: T1, MRK; assay: MRK activity in K562 cells, western blot; type: cell-based; parameters: endogenous in cells; settings: 1 μM, 6 hours
Experimental: as §3

[12] = target: T1, MRK; assay: Inhibition of endogenous MRK activity induced by radiation in medulloblastoma cells; type: cell-based; parameters: endogenous in cells; host or cells: UW228 medulloblastoma cells
Experimental: FIG. 7. Inhibition of IR-induced signaling downstream of MRK by M443. […] One hour after IR treatment, cells were harvested and cell lysates were tested by western blot for the activities of MRK, p38 and Chk2 proteins using the respective phospho-specific antibodies.

T1 sequence (Q9NYL2 whole entry): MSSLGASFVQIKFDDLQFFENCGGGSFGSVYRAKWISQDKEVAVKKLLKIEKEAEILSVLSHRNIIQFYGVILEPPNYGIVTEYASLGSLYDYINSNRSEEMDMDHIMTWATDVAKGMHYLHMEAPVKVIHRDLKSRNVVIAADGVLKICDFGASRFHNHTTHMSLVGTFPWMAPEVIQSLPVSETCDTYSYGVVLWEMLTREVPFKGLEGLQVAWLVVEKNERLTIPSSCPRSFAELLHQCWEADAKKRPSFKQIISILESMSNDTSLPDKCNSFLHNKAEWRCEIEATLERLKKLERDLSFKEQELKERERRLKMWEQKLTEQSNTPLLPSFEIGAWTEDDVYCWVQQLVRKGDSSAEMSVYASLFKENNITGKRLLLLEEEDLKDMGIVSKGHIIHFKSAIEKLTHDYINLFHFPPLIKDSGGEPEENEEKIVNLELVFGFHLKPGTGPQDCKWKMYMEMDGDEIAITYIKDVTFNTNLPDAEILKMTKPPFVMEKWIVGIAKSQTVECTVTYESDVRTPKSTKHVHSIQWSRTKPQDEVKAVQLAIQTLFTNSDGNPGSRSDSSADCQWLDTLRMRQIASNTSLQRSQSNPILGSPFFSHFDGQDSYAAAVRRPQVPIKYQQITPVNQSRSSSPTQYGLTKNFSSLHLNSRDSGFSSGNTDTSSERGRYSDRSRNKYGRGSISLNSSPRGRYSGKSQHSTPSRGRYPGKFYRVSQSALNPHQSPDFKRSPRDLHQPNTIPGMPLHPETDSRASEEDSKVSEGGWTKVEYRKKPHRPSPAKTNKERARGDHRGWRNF
T2 sequence (P00519 with tags, fused parts or gaps): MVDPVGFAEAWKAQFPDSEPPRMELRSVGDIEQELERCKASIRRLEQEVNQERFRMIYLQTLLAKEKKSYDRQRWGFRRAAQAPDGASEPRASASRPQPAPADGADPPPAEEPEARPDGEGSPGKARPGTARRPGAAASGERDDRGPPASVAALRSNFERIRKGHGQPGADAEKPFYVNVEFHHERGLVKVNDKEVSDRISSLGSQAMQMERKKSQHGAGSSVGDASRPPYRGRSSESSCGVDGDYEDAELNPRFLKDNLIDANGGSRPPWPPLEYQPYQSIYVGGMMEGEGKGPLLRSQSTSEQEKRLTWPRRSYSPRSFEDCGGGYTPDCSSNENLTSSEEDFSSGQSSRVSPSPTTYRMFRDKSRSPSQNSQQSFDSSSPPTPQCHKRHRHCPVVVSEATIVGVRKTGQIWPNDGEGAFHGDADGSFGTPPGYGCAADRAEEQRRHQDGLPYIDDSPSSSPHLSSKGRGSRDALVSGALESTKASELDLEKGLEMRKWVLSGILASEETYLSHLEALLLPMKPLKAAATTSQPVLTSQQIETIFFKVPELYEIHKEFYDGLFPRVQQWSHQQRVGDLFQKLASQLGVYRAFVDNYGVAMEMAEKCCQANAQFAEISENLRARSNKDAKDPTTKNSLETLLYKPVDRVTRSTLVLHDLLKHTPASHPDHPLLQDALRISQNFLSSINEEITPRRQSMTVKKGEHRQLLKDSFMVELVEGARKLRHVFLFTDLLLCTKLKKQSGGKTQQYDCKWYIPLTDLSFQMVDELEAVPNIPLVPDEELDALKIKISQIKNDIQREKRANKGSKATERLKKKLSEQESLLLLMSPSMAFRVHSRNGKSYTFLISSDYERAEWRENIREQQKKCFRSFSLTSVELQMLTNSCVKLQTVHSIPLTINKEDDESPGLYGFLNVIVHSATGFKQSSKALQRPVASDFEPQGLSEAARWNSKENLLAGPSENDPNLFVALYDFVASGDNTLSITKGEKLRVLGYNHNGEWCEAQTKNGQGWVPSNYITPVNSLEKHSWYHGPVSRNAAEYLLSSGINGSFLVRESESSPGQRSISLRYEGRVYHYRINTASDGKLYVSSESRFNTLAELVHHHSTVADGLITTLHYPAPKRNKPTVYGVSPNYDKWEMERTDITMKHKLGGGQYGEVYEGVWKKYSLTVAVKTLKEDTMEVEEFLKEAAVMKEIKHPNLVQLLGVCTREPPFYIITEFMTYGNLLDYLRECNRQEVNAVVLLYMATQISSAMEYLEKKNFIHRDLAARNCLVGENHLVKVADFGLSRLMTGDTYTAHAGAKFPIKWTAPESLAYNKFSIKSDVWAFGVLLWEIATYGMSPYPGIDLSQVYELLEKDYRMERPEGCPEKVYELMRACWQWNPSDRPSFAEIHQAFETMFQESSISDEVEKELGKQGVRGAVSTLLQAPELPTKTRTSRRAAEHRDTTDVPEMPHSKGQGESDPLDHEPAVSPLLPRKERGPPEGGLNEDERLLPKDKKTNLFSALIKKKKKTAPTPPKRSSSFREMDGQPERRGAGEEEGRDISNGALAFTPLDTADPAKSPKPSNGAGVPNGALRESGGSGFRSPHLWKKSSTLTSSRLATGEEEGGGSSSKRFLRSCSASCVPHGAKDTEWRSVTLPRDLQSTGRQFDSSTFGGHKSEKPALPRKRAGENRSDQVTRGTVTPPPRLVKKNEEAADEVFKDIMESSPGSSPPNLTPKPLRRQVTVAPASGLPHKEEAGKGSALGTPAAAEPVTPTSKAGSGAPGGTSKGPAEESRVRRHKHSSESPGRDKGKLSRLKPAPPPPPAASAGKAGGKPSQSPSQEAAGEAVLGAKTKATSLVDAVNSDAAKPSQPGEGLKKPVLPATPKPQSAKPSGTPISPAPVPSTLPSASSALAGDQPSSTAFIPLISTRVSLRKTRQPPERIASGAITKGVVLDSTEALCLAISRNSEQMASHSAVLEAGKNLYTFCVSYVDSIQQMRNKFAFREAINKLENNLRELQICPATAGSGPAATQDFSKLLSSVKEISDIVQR

SMILES	binding to MRK [1]	inhibition of MRK activity (P-MRK) after washout [2]	sensitization to killing by radiation (colony formation) [3]	activation of Chk2 by ionizing radiation [4]	activation of p38 by ionizing radiation [5]	sensitization to X-ray irradiation (MTT viability) [6]	survival benefit, M443 on its own ([7]; IMB226 orthotopic in nude mice, M443 into the tumor via osmotic pump, no IR) [days]	increase in survival, combination of M443 and IR ([7]; IMB226 orthotopic in nude mice, M443 into the tumor via osmotic pump, plus IR) [days]	tumor hemorrhage ([7]; M443-treated tumors)	radiosensitization effect on survival ([7]; p<0.0029, 2×2 factorial Cox model)	P-MRK signal in brain lysates [8]	total MRK levels in tumors [8]	P-c-Abl signal in brain lysates [9]	inhibition of BCR-Abl in K562 cells [10]	inhibition of MRK activity in K562 cells [11]	IC50 [12] [nM]
Cc1cn(-c2cc(NC(=O)c3ccc(C)c(Nc4nccc(-c5cccnc5)n4)c3)cc(C(F)(F)F)c2)cn1 [nilotinib]	binds strongly to MRK															
C=CC(=O)N1CCCC(c2ccnc(Nc3cc(C(=O)Nc4cc(-n5cnc(C)c5)cc(C(F)(F)F)c4)ccc3C)n2)C1 (stereo not shown) [M443]		effectively inhibits MRK in an irreversible fashion	strongly sensitized	greatly reduced	greatly reduced	sensitizes breast cancer cells to X-ray irradiation	5	16	less hemorrhagic	very significant radiosensitization effect	none of the fractions from the M443-treated animal had a detectable signal for P-MRK	strongly decreased	somewhat increased	does not inhibit BCR-Abl	as efficient as nilotinib	~125
